The text below walks through data of PMC8305768, “Design, Synthesis and Antiparasitic Evaluation of Click Phospholipids” (Molecules, 2021).

For data set [1], the system named is PMA-differentiated THP-1 cells. Put plainly: Cytotoxicity against THP-1 macrophages (MTT). The format is cell-based. The settings on record: PMA-differentiated THP-1 macrophages, 72 h, read-out: Toxicity CC50 ± SD Or CC50 Interval Estimation. The protocol: The effect of compounds selected compounds on THP-1-derived macrophages was assessed by the colorimetric MTT assay (3-(4,5-dimethylthiazol-2-yl)-2,5-diphenyl tetrazolium bromide). Briefly, 1 × 10^5 THP-1 cells/mL were differentiated into macrophages by addition of 20 ng/mL of phorbol-myristate 13-acetate (PMA, Sigma, Saint Louis, MI, USA) for 18 h, followed by replacement with fresh medium for 24 h. Cells were incubated with 100 µL of compounds ranging from 100 to 1 µM after dilution in the RPMI complete medium containing a maximum amount of 1% DMSO. After incubation for 72 h, the medium was removed and 100 µL of 0.5 mg/mL MTT solution diluted in RPMI was added. Plates were incubated for an additional 4 h to allow viable cells to convert MTT into a purple formazan product. Solubilization of formazan crystals was achieved by the addition of 2-propanol and absorbance was read at 570 nm using a Synergy 2 Multi-Mode Reader (Biotek, Winooski, VT, USA). Cytotoxicity was evaluated by the determination of the CC50 value (drug concentration that reduced the percentage of viable cells in 50%) and calculated by non-linear regression analysis using GraphPad Prism version 8.1.1 for Windows (GraphPad Software, San Diego, CA, USA).

The target of data set [2] is T1, Aurora B kinase (Homo sapiens, UniProt Q96GD4).
T1 construct: purchased Promega Corp
T1 sequence (Q96GD4 whole entry): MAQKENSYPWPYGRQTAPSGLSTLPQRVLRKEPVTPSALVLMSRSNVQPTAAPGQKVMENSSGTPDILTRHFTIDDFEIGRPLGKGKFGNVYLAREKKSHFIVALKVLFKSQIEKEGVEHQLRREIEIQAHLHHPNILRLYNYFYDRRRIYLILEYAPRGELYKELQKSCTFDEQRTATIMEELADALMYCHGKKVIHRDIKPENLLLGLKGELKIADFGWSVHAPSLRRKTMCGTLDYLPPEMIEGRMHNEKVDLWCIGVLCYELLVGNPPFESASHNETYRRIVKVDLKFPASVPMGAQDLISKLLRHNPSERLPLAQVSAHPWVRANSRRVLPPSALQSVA
In words: Aurora B kinase assay (ADP-Glo). In kind it is biochemical. The settings on record: compounds 10 μM; miltefosine 10 μM or 1 μM; read-out: % inhibition ± SD at 10 μΜ Aurora B. The protocol: Aurora B kinase assay: Inhibition of Aurora B kinase was determined using the ADP-Glo Kinase Enzyme System (Promega Corp., Madison, WI, USA). The positive control was SU6656 at a final concentration of 1 μM, with the NC being DMSO at the same concentration (v/v). An enzyme master mix containing 1 × buffer, 50 μM DTT and 17.5 ng/μL ([…]) Aurora B (all reagents provided in the kit) was prepared. A substrate master mix containing 1 × buffer, 36 μM adenosine triphosphate (ATP) and 7.5 ng/μL (15 ng/well) myelin basic protein (MBP) as a substrate (buffer and MBP were provided in the Aurora B Kinase Enzyme System; ultrapure ATP was provided in the ADP-Glo Kinase Assay System) was prepared. Two microliters of the enzyme master mix and 2 μL of the substrate master mix were added to each well of a 384-well low-volume plate. The plate was sealed using Thermowell sealing tape (Corning Inc., Corning, NY, USA) and incubated for 45 min at rt. The enzymatic reaction was stopped by adding 4 μL of ADP-Glo reagent (provided in the ADP-Glo Kinase Assay System) and the plate sealed using Thermowell sealing tape and incubated for 40 min at rt. Following this, 8 μL of detection reagent was added to each well, and the plate was sealed again and incubated for 45 min at rt, with the luminescence measured using the EnVision Multilabel 2103 Reader (PerkinElmer, Waltham, MA. USA). DMSO concentration was tolerated up to 2% v/v final.
Background: ADP-Glo first removes unused ATP, then detects ADP through luciferase.

In data set [3] the test system is T. cruzi intracellular amastigotes (Y strain). Put plainly: T. cruzi intracellular amastigotes in Swiss mouse peritoneal macrophages (high content imaging). In kind it is cell-based. As to conditions: Trypanosoma cruzi, Peritoneal macrophage.
Procedure: The trypomastigotes were obtained from the supernatant of a previously infected cell line (LLC-MK2). Between 5 and 7 days after infection, protozoa were collected from the supernatants of the infected LLC-MK2 cells and were then incubated with fresh RPMI 1640 medium supplemented with 0.5% FBS, with or without the compounds, for 24 h at 37 °C under a 5% CO2 atmosphere. […] The experiment was performed in duplicate for each of the three different experiments. […] To investigate the effect of the compounds on intracellular amastigotes, peritoneal macrophages from Swiss mouse (CF1) plated in 96 wells plates (Costar®, Sigma, São Paulo, Brazil) were incubated for 2 h with T. cruzi trypomastigotes at a ratio of 10 parasites to 1 cell. The non-internalized parasites were removed by washing with the RPMI 1640 medium, and the host cells were incubated for 24 h at 37 °C to allow full internalization and differentiation of trypomastigotes to amastigotes. Fresh 10% FBS-RPMI 1640 medium with 1 µg/mL Hoescht 3348 and 1 µg/mL of WGA-FITC (control) or the same solution containing the inhibitors was added to the infected cells, which were then incubated for 96 h at 37 °C. Every 24 h samples were taken and analysed in high content equipment (InCell Analyser 2000, GE Healthcare, Chicago, IL, USA) with 20× air objective (NA 0.4) using respectively filters to excitation and emission to DAPI (405/455 nm), FITC (488/505 nm) and Cy3 (514/605 nm). Six images were collected for each well for reliable statistical analysis. […] The infection index (i.e., the percentage of infected host cells multiplied by the average number of intracellular amastigotes per infected host cell) was determined by counting a total of 500 host cells. Inhibitor activity was calculated using the SigmaPlot (version 10) program (Systat Software, Inc., San Jose, CA, USA). The results are expressed as the mean values from three independent experiments. The IC50 was calculated for promastigotes and intracellular amastigotes by fitting the values to a non-linear curve analysis. […]
On the set-up of data set [4]: method as in PMID 18472998, PMID 22573856. The settings on record: in humans ref 12,13; cited from earlier work.

Counter-ions that a name gives are not always drawn. Like-named read-outs stand apart in the source and are kept apart here.

By CC50 is commonly meant the concentration at which the toxic effect on the cells reaches its halfway point. For `CCCCCCCCc1noc(CCCCCCCCCCOP(=O)([O-])OCC[N+](C)(C)C)n1` [Compound 54, 10-(3-octyl-1,2,4-oxadiazol-5-yl)decyl (2-(trimethylammonio)ethyl) phosphate inner salt], in data set [1], the CC50 was 10.8 µM.

A word on the inhibition: it is the drop in the measured response relative to a control, in per cent. Turning to `C[N+](C)(C)CCOP(=O)([O-])OCCCCCCCCCCCn1cc(CC2CCCC2)nn1` [Compound 28, 11-(4-(cyclopentylmethyl)-1H-1,2,3-triazol-1-yl)undecyl (2-(trimethylammo nio)ethyl) phosphate inner salt], the inhibition at 10 µM in data set [2] was -11.7%.

`CCCCCc1cn(CCCCCCCCCCCOP(=O)([O-])OCC[N+](C)(C)C)nn1` [Compound 25, 11-(4-pentyl-1H-1,2,3-triazol-1-yl)undecyl (2-(trimethylammonio)ethyl) phosphate inner salt]: the inhibition at 10 µM in data set [2] is -10.3%.

Regarding `C[N+](C)(C)CCOP(=O)([O-])OCCCCCCCCCCCn1cc(CC2CCCCC2)nn1` [Compound 29, 11-(4-(cyclohexylmethyl)-1H-1,2,3-triazol-1-yl)undecyl (2-(trimethylammonio)ethyl) phosphate inner salt], the inhibition at 10 µM in data set [2] was -6.17%.

The term IC50 denotes the concentration that inhibits the measured activity by half. The term half-life denotes the time needed for the level to fall by half in the phase considered. In the case of `CCCCCCCCCCCCCCCCOP(=O)([O-])OCC[N+](C)(C)C` [Miltefosine, hexadecylphosphocholine, reference compound], the 50% inhibitory concentration (IC50) in data set [3] (24 h, read-out: IC50 24 h) is 12.4 ± 0.6 µM; in data set [3] (48 h, read-out: IC50 48 h), 4.59 ± 0.1 µM; in data set [3] (72 h, read-out: IC50 72 h), 4.3 ± 0.12 µM. Besides, the half-life in data set [4] was 100 to 200 h. In data set [2], the inhibition at 10 µM is -12.5%.
